# Where two headings read alike, the source gives them in different places.
# Tests used:
# [1] = tested on: O=C1O[C@H]([C@@H](O)CO)[C@H](O)[C@@H]1O; test: purified protein, by the assay type
# [2] = biological target: recombinant GST-tagged L-gulono-1,4-lactone dehydrogenase of Mycobacterium tuberculosis (Mycobacterium tuberculosis, UniProt P9WIT3); details: for Enzyme specific activity: substrate 50 mM
# [3] = biological target: plant L-galactono-1,4-lactone dehydrogenase (Brassica oleracea, UniProt O47881); details: read-out: Km for the L-galactono-1,4-lactone substrate; value reported by Östergaard et al., 1997; cited from earlier work
# Chain of plant L-galactono-1,4-lactone dehydrogenase (O47881 92-600): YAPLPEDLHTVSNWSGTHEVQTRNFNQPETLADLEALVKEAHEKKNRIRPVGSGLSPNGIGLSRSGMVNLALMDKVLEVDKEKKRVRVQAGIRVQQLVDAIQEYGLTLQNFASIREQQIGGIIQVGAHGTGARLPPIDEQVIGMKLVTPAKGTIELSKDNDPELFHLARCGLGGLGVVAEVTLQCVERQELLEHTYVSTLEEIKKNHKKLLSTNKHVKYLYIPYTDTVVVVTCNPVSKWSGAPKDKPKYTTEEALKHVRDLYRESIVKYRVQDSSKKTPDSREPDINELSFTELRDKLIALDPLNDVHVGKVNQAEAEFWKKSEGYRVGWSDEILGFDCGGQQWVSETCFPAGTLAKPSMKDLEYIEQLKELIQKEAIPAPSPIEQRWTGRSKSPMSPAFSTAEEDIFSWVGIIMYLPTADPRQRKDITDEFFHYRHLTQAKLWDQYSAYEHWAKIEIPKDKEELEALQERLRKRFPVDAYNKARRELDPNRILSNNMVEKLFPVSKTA
# Chain of recombinant GST-tagged L-gulono-1,4-lactone dehydrogenase of Mycobacterium tuberculosis (P9WIT3 whole entry): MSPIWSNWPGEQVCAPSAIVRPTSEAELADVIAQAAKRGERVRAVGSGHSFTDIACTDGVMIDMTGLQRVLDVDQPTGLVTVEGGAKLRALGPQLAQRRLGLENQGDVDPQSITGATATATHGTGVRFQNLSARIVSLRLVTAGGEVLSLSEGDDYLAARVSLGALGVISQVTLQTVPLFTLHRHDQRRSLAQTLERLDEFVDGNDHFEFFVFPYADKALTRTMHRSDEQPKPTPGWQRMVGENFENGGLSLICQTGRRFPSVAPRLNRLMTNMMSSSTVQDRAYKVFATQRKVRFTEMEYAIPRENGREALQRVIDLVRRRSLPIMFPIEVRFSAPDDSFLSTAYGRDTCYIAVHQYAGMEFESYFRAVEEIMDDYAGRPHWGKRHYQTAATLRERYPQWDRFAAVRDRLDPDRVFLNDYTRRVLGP
compound,measurement,setting,value
"recombinant GST-tagged L-gulono-1,4-lactone dehydrogenase of Mycobacterium tuberculosis (Mycobacterium tuberculosis H37Rv)",Km,[1],5 mM mM
same,Vmax,[1],2.44µmol·h^-1mg^-1 µmol·h^-1mg^-1
same,kcat,[1],0.033 s^-1 s^-1
same,kcat/Km,[1],0.0065 s^-1·mM^-1 s^-1·mM^-1
O=C[C@H](O)[C@@H](O)[C@H](O)CO [D-xylose],Enzyme specific activity,[2],0 mU/mg ofprotein
O=C[C@H](O)[C@@H](O)[C@H](O)[C@H](O)C(=O)O [D-glucuronic acid],Enzyme specific activity,[2],0 mU/mg ofprotein
"O=C1O[C@H]([C@@H](O)CO)[C@H](O)[C@@H]1O [L-gulono-1,4-lactone]",Enzyme specific activity,[2],66.7 mU/mg ofprotein
O=C[C@@H](O)[C@H](O)[C@H](O)CO [D-arabinose],Enzyme specific activity,[2],0 mU/mg ofprotein
[Cl-].[Cl-].[Mg+2] [MgCl2],Relative activity,[2]; effector 1 mM,98 % of control
"O=C[C@H](O)[C@H]1OC(=O)[C@@H](O)[C@H]1O [D-glucurono-3,6-lactone]",Enzyme specific activity,[2],0 mU/mg ofprotein
[Cl][Cu][Cl] [CuCl2],Relative activity,[2]; effector 1 mM,0 % of control
same,effect on the enzyme activity (in words),"[2]; effectors, EDTA 1 mM",Inhibition
O=C(O)CN(CCN(CC(=O)O)CC(=O)O)CC(=O)O [EDTA],Relative activity,[2],0 % of control
same,effect on the enzyme activity (in words),[2],complete inhibition
[Cl-].[Cl-].[Zn+2] [ZnCl2],Relative activity,[2]; effector 1 mM,0 % of control
same,effect on the enzyme activity (in words),"[2]; effectors, EDTA 1 mM",Inhibition
CCN1C(=O)C=CC1=O [N-ethylmaleimide],Relative activity,[2]; effector 1 mM,0 % of control
same,effect on the enzyme activity (in words),"[2]; effectors, EDTA 1 mM",Inhibition
[Ca+2].[Cl-].[Cl-] [CaCl2],Relative activity,[2]; effector 1 mM,91 % of control
[Cl][Mn][Cl] [MnCl2],Relative activity,[2]; effector 1 mM,79 % of control
Cc1cc2nc3c(=O)[nH]c(=O)nc-3n(C[C@H](O)[C@H](O)[C@H](O)COP(=O)(O)OP(=O)(O)OC[C@H]3O[C@@H](n4cnc5c(N)ncnc54)[C@H](O)[C@@H]3O)c2cc1C [FAD],Relative activity,[2]; effector 100 µM,94 % of control
same,effect on the enzyme activity (in words),"[2]; effectors, EDTA 1 mM",not affected
"O=C1O[C@H]([C@@H](O)CO)[C@@H](O)[C@@H]1O [L-galactono-1,4-lactone]",Enzyme specific activity,[2],0 mU/mg ofprotein
same,activity towards substrate (in words),[2]; substrate specificity,no activity
same,Km,[3],3.3 mM
